From ChEMBL document CHEMBL5441456, “ASAP - SARS-CoV-2 nsp3 macrodomain dose response” (2024)
Several values for one entry are separate records, joined by “and”; a condition that tells them apart may be missing. Equal entries are not always repeated.

These molecules were tested against Replicase polyprotein 1ab (Severe acute respiratory syndrome coronavirus 2, UniProt P0DTD1) (assay: Functional biochemical assay to identify treatments for viral infectious disease that targets SARS-COV-2 nsp3 macrodomain, whereby the mechanism of action displaces an ADP-Ribose modified peptide from the binding site. Utilizing a time-resolved fluorescence method to measure binding by reading the emitted fluorescence intensity in two wavelengths.).

**Q.** For `COc1ccc([C@@H](CC(=O)O)NC(=O)c2ccc(NC(=O)NC3CC3)cc2)cc1`, which IC50 is on record?
**A.** The IC50 was 57.5 µM and 37.8 µM.

**Q.** For `CC(C)[C@@H](Nc1ncnc2[nH]c(-c3cnc4c(c3)CC(=O)N4)cc12)c1ccc2c(c1)OCCO2`, which IC50 is on record?
**A.** Its IC50 is 1.3 µM and 1.51 µM.

**Q.** How did the IC50 turn out when `Cc1[nH]c2ncnc(NC(=O)c3ccc(-n4cnnc4)cc3)c2c1C` was run?
**A.** Its IC50 is over 99.5 µM.

**Q.** `O=C(c1cnc[nH]1)N1CCC(c2ccn3ncc(C(=O)N4CCCCC4)c3c2)CC1` was tested. Which IC50 did it give?
**A.** The IC50 was over 99.5 µM.

**Q.** Which IC50 does the source give for `CC(C)[C@@H](Nc1ncnc2[nH]ccc12)C(F)F` here?
**A.** Its IC50 is 15.2 µM.

**Q.** `CC(C)[C@@H](Nc1ncnc2[nH]c(-c3cnn(C(C)C)c3)cc12)c1ccc2c(c1)OCCO2` was tested. Which IC50 did it give?
**A.** Its IC50 is 0.757 µM and 0.962 µM and 0.864 µM.

**Q.** `CC(C)[C@@H](Nc1ncnc2[nH]c(C(=O)Nc3cnccc3O)cc12)c1ccc2c(c1)OCCO2` was tested. Which IC50 did it give?
**A.** The IC50 was 9.98 µM and 17.9 µM.

**Q.** For `O=C(O)C[C@@H](NC(=O)c1ccc(NC(=O)NC2CC2)cc1)c1cccc(O)c1`, which IC50 is on record?
**A.** Its IC50 is 9.04 µM and 8.76 µM.

**Q.** Which IC50 does the source give for `CO[C@@H]1CCCN(C(=O)c2cnn3ccc(C4CCN(C(=O)c5ccccc5)CC4)cc23)C1` here?
**A.** The IC50 was over 99.5 µM.

**Q.** With `CO[C@H]1C[C@@H](C(=O)O)N(c2ncnc3[nH]ccc23)C1` as the molecule, how does the IC50 read?
**A.** The IC50 was 79.4 µM and 83.6 µM.

**Q.** For `CC(C)[C@@H](Nc1ncnc2[nH]c(-c3ccnn3C)cc12)c1ccc2c(c1)OCCO2`, which IC50 is on record?
**A.** The IC50 was 0.699 µM and 0.883 µM and 0.832 µM.

**Q.** `c1nc(-c2ccc3c(c2)OCO3)c2cc[nH]c2n1` was tested. Which IC50 did it give?
**A.** The IC50 was over 99.5 µM.

**Q.** For `CC(=O)Nc1ccc(C(=O)Nc2ncnc3[nH]c(C)c(C)c23)cc1Cl`, which IC50 is on record?
**A.** Its IC50 is over 99.5 µM.

**Q.** How did the IC50 turn out when `CC(C)[C@H](Nc1ncncc1-n1cncn1)c1ccc2c(c1)S(=O)(=O)CCC2` was run?
**A.** The IC50 was over 99.5 µM.

**Q.** For `CC(C)[C@H](Nc1ncnc2[nH]ccc12)c1ccc2c(c1)NC(=O)CO2`, which IC50 is on record?
**A.** The IC50 was over 99.5 µM.

**Q.** With `CC(C)[C@@H](Nc1ncnc2[nH]c(-c3cncnc3)cc12)c1ccc2c(c1)S(=O)(=O)CCC2` as the molecule, how does the IC50 read?
**A.** Its IC50 is 0.478 µM and 0.308 µM and 0.538 µM.

**Q.** Which IC50 does the source give for `O=C(O)C[C@@H](NC(=O)c1ccc(NC(=O)NC2CC2)cc1)C1CCOCC1` here?
**A.** The IC50 was over 99.5 µM.

**Q.** For `COc1ncnc(N[C@H](c2ccc3c(c2)S(=O)(=O)CCC3)C(C)C)c1F`, which IC50 is on record?
**A.** The IC50 was over 99.5 µM.

**Q.** `O=C(OCc1cccc(Cl)n1)c1ncnc2[nH]ccc12` was tested. Which IC50 did it give?
**A.** The IC50 was over 124 µM.

**Q.** With `Cc1cccc(Cl)c1-n1sc(=O)n(CC2CC2)c1=O` as the molecule, how does the IC50 read?
**A.** Its IC50 is 23 µM.

**Q.** `COCCn1cc(-c2cc3c(N[C@@H](c4ccc5c(c4)OCCO5)C(C)C)ncnc3[nH]2)c(C#N)n1` was tested. Which IC50 did it give?
**A.** Its IC50 is 0.676 µM and 0.868 µM.

**Q.** `CNC(=O)c1ccc([C@@H](CC(=O)O)NC(=O)c2ncnc3[nH]ccc23)cc1` was tested. Which IC50 did it give?
**A.** Its IC50 is 9.07 µM and 13.4 µM.

**Q.** Which IC50 does the source give for `Cc1[nH]c2ncnc(NC(=O)c3ccc(C(F)(F)F)nc3)c2c1C` here?
**A.** Its IC50 is over 99.5 µM.

**Q.** How did the IC50 turn out when `CNc1nccc(N[C@@H](c2ccc3c(c2)S(=O)(=O)CCC3)C(C)C)n1` was run?
**A.** Its IC50 is over 99.5 µM.

**Q.** `Cc1nn(C)nc1-c1cc2c(N[C@@H](c3ccc4c(c3)OCCO4)C(C)C)ncnc2[nH]1` was tested. Which IC50 did it give?
**A.** Its IC50 is 27.6 µM and 34.2 µM.

**Q.** Which IC50 does the source give for `Cc1nc(C)c(CC(=O)Nc2cnc3[nH]ncc3c2)c(=O)[nH]1` here?
**A.** The IC50 was over 99.5 µM.

**Q.** For `O=C(O)[C@@H](Nc1ncnc2[nH]ccc12)C1CC(F)(F)C1`, which IC50 is on record?
**A.** The IC50 was over 99.5 µM.

**Q.** `CC(C)[C@@H](Oc1cc(N)ncn1)c1ccc2c(c1)S(=O)(=O)CCC2` was tested. Which IC50 did it give?
**A.** Its IC50 is 67.4 µM.

**Q.** Which IC50 does the source give for `O=C(O)C[C@@H](NC(=O)c1cccc2[nH]cnc12)c1ccc(Br)cc1` here?
**A.** Its IC50 is 39.2 µM and 40.3 µM.

**Q.** `Cc1cn(C)nc1-c1cc2c(N[C@@H](c3ccc4c(c3)OCCO4)C(C)C)ncnc2[nH]1` was tested. Which IC50 did it give?
**A.** Its IC50 is over 99.5 µM.

**Q.** For `O=C(O)c1cn(CCNC(=O)c2ncnc3[nH]ccc23)cn1`, which IC50 is on record?
**A.** Its IC50 is over 99.5 µM.

**Q.** Which IC50 does the source give for `O=C(O)C[C@@H](NC(=O)c1ncnc2[nH]ccc12)c1ccc(NCC2C[C@@H](O)[C@@H](O)C2)cc1` (some centres undefined) here?
**A.** Its IC50 is 25 µM and 27.5 µM.

**Q.** How did the IC50 turn out when `CC(C)[C@@H](Nc1ncnc2[nH]c(-c3ccc(S(C)(=O)=O)nc3)cc12)c1ccc2c(c1)S(=O)(=O)CCC2` was run?
**A.** Its IC50 is 0.049 µM and 0.054 µM and 0.094 µM and 0.06 µM and 0.069 µM.

**Q.** `Cc1nc(N)c(Cl)c(N[C@H](c2ccc3c(c2)S(=O)(=O)CCC3)C(C)C)n1` was tested. Which IC50 did it give?
**A.** The IC50 was over 99.5 µM.

**Q.** How did the IC50 turn out when `C[C@@H](Nc1ncnc2[nH]ccc12)[C@@H]1CCS(=O)(=O)C1` was run?
**A.** Its IC50 is over 99.5 µM.

**Q.** How did the IC50 turn out when `Cc1nn(CC(C)C)c(Cl)c1[C@@H]1CCCN1c1ncnc2[nH]ccc12` was run?
**A.** Its IC50 is over 99.5 µM.

**Q.** With `Cc1noc2ncc(-c3cc4c(N[C@@H](c5ccc6c(c5)OCCO6)C(C)C)ncnc4[nH]3)cc12` as the molecule, how does the IC50 read?
**A.** Its IC50 is 3.73 µM and 3 µM.

**Q.** For `Cc1n[nH]c(C)c1C(=O)N1CCC(c2ccn3ncc(C(=O)N4CCCCC4)c3c2)CC1`, which IC50 is on record?
**A.** The IC50 was over 99.5 µM.

**Q.** With `CC(C)[C@@H](Nc1ncnc2[nH]c(-c3cnc(C4CC4)o3)cc12)c1ccc2c(c1)OCCO2` as the molecule, how does the IC50 read?
**A.** Its IC50 is 3.28 µM and 3.76 µM.
